In ChEMBL document CHEMBL1255329, “Effect of polysorbate 80 on oritavancin binding to plastic surfaces: implications for susceptibility testing” (2008):
Values after ≈ are worked out from the molar mass of the structure shown.

Legend:
Format in all cases: functional
[1] = system: Enterococcus faecalis; assay: Antibacterial activity against Enterococcus faecalis ATCC 29212 in CAMHB medium by broth microdilution method in presence of 0.002% polysorbate 80
[2] = system: Enterococcus faecalis; assay: Antibacterial activity against Enterococcus faecalis ATCC 29212 in CAMHB medium containing 2% LHB by broth microdilution method in absence of 0.002% polysorbate 80
[3] = system: Enterococcus faecalis; assay: Antibacterial activity against Enterococcus faecalis ATCC 29212 in CAMHB medium by broth microdilution method in absence of 0.002% polysorbate 80
[4] = system: Streptococcus pneumoniae; assay: Antibacterial activity against Streptococcus pneumoniae ATCC 49619 in BHI broth containing 2% LHB by broth microdilution method in presence of 0.002% polysorbate 80
[5] = system: Staphylococcus aureus; assay: Antibacterial activity against Staphylococcus aureus ATCC 29213 in CAMHB medium containing 2% LHB by broth microdilution method in absence of 0.002% polysorbate 80
[6] = system: Staphylococcus aureus; assay: Antibacterial activity against Staphylococcus aureus ATCC 29213 in CAMHB medium by broth microdilution method in absence of 0.002% polysorbate 80
[7] = system: Staphylococcus aureus; assay: Antibacterial activity against Staphylococcus aureus ATCC 29213 in CAMHB medium containing 2% LHB by broth microdilution method in presence of 0.002% polysorbate 80
[8] = system: Streptococcus pneumoniae; assay: Antibacterial activity against Streptococcus pneumoniae ATCC 49619 in CAMHB medium containing 2% LHB by broth microdilution method in presence of 0.002% polysorbate 80
[9] = system: Enterococcus faecalis; assay: Antibacterial activity against Enterococcus faecalis ATCC 29212 in CAMHB medium containing 2% LHB by broth microdilution method in presence of 0.002% polysorbate 80
[10] = system: Staphylococcus aureus; assay: Antibacterial activity against Staphylococcus aureus ATCC 29213 in CAMHB medium by broth microdilution method in presence of 0.002% polysorbate 80
[11] = system: Streptococcus pneumoniae; assay: Antibacterial activity against Streptococcus pneumoniae ATCC 49619 in BHI broth by broth microdilution method in absence of 0.002% polysorbate 80
[12] = Antibacterial activity against Streptococcus Group C clinical isolate by broth microdilution method; settings: Streptococcus sp. 'group C'
[13] = system: Streptococcus agalactiae; assay: Antibacterial activity against Streptococcus agalactiae clinical isolate using 2% LHB by broth microdilution method
[14] = system: Enterococcus faecium; assay: Antibacterial activity against Enterococcus faecium clinical isolate by broth microdilution method
[15] = system: Streptococcus pneumoniae; assay: Antibacterial activity against Streptococcus pneumoniae ATCC 49619 in BHI broth containing 2% LHB by broth microdilution method in absence of 0.002% polysorbate 80
[16] = system: Streptococcus pneumoniae; assay: Antibacterial activity against Streptococcus pneumoniae ATCC 49619 in BHI broth by broth microdilution method in presence of 0.002% polysorbate 80
[17] = system: Enterococcus faecium; assay: Antibacterial activity against Enterococcus faecium clinical isolate by broth microdilution method in presence of 0.002% polysorbate 80
[18] = system: Staphylococcus aureus; assay: Antibacterial activity against Staphylococcus aureus ATCC 29213 assessed as reduction in compound MIC by broth microdilution method in presence of 0.002% polysorbate 80 in solvent
[19] = system: Streptococcus pyogenes; assay: Antibacterial activity against Streptococcus pyogenes clinical isolate by broth microdilution method in presence of 0.002% polysorbate 80
[20] = system: Streptococcus pyogenes; assay: Ratio of MIC for Streptococcus pyogenes clinical isolate to MIC for Streptococcus pyogenes clinical isolate in presence of 0.002% polysorbate 80
[21] = system: Streptococcus viridans; assay: Antibacterial activity against Streptococcus viridans group clinical isolate by broth microdilution method
[22] = system: Streptococcus agalactiae; assay: Antibacterial activity against Streptococcus agalactiae clinical isolate using 2% LHB by broth microdilution method in presence of 0.002% polysorbate 80
[23] = system: Staphylococcus aureus; assay: Antibacterial activity against Staphylococcus aureus ATCC 29213 assessed as reduction in compound MIC by broth microdilution method in presence of 0.002% polysorbate 80 in inoculum
[24] = system: Streptococcus viridans; assay: Antibacterial activity against Streptococcus viridans group clinical isolate by broth microdilution method in presence of 0.002% polysorbate 80
[25] = Antibacterial activity against Streptococcus Group C clinical isolate by broth microdilution method in presence of 0.002% polysorbate 80; settings: Streptococcus sp. 'group C'
[26] = system: Streptococcus pneumoniae; assay: Antibacterial activity against Streptococcus pneumoniae clinical isolate by broth microdilution method in presence of 0.002% polysorbate 80
[27] = system: Staphylococcus aureus; assay: Antibacterial activity against Staphylococcus aureus clinical isolate by broth microdilution method
[28] = system: Streptococcus pneumoniae; assay: Antibacterial activity against Streptococcus pneumoniae ATCC 49619 in CAMHB medium containing 2% LHB by broth microdilution method in absence of 0.002% polysorbate 80
[29] = system: Streptococcus pyogenes; assay: Antibacterial activity against Streptococcus pyogenes clinical isolate by broth microdilution method
[30] = system: Enterococcus faecium; assay: Ratio of MIC for Enterococcus faecium clinical isolate to MIC for Enterococcus faecium clinical isolate in presence of 0.002% polysorbate 80
[31] = Antibacterial activity against Streptococcus Group G clinical isolate by broth microdilution method; settings: Streptococcus sp. 'group G'
[32] = system: Streptococcus pneumoniae; assay: Antibacterial activity against Streptococcus pneumoniae clinical isolate by broth microdilution method
[33] = system: Staphylococcus; assay: Ratio of MIC for coagulase-negative Staphylococcus clinical isolate to MIC for coagulase-negative Staphylococcus clinical isolate in presence of 0.002% polysorbate 80
[34] = Antibacterial activity against Streptococcus Group G clinical isolate by broth microdilution method in presence of 0.002% polysorbate 80; settings: Streptococcus sp. 'group G'
[35] = system: Enterococcus faecalis; assay: Ratio of MIC for Enterococcus faecalis clinical isolate to MIC for Enterococcus faecalis clinical isolate in presence of 0.002% polysorbate 80
[36] = system: Staphylococcus; assay: Antibacterial activity against coagulase-negative Staphylococcus clinical isolate by broth microdilution method in presence of 0.002% polysorbate 80
[37] = system: Enterococcus faecalis; assay: Antibacterial activity against Enterococcus faecalis clinical isolate by broth microdilution method
[38] = system: Enterococcus faecalis; assay: Antibacterial activity against Enterococcus faecalis clinical isolate by broth microdilution method in presence of 0.002% polysorbate 80
[39] = system: Staphylococcus; assay: Antibacterial activity against coagulase-negative Staphylococcus clinical isolate by broth microdilution method
[40] = system: Streptococcus viridans; assay: Ratio of MIC for Streptococcus viridans group clinical isolate to MIC for Streptococcus viridans group clinical isolate in presence of 0.002% polysorbate 80
[41] = system: Staphylococcus aureus; assay: Antibacterial activity against Staphylococcus aureus clinical isolate by broth microdilution method in presence of 0.002% polysorbate 80
[42] = system: Staphylococcus aureus; assay: Ratio of MIC for Staphylococcus aureus clinical isolate to MIC for Staphylococcus aureus clinical isolate in presence of 0.002% polysorbate 80
[43] = system: Streptococcus pneumoniae; assay: Ratio of MIC for Streptococcus pneumoniae clinical isolate to MIC for Streptococcus pneumoniae clinical isolate in presence of 0.002% polysorbate 80

Which MIC [1] does the source give for O=C(O)c1cn(C2CC2)c2cc(N3CCNCC3)c(F)cc2c1=O [CIPROFLOXACIN] here?
Its MIC is 0.5 µg/mL.

What about the MIC [2] of the same compound?
Its MIC is 0.5 µg/mL (≈ 1.51 µM).

And the MIC [3]?
Its MIC is 0.5 µg/mL (≈ 1.51 µM).

What about the MIC [4] of the same compound?
The MIC was 1 µg/mL.

What about the MIC [5] of the same compound?
Its MIC is 0.5 µg/mL (≈ 1.51 µM).

And the MIC [6]?
The MIC was 0.5 µg/mL (≈ 1.51 µM).

What about the MIC [7] of the same compound?
The MIC was 0.5 µg/mL.

And the MIC [8]?
The MIC was 1 µg/mL.

What about the MIC [9] of the same compound?
The MIC was 0.5 µg/mL.

What about the MIC [10] of the same compound?
Its MIC is 0.5 µg/mL.

Which results are given for CN[C@H](CC(C)C)C(=O)N[C@H]1C(=O)N[C@@H](CC(N)=O)C(=O)N[C@H]2C(=O)N[C@H]3C(=O)N[C@H](C(=O)N[C@H](C(=O)O)c4cc(O)cc(O)c4-c4cc3ccc4O)[C@H](O[C@H]3C[C@](C)(N)[C@@H](O)[C@H](C)O3)c3ccc(c(Cl)c3)Oc3cc2cc(c3O[C@@H]2O[C@H](CO)[C@@H](O)[C@H](O)[C@H]2O[C@H]2C[C@](C)(NCc3ccc(-c4ccc(Cl)cc4)cc3)[C@@H](O)[C@H](C)O2)Oc2ccc(cc2Cl)[C@H]1O [ORITAVANCIN]?
MIC [11]: 0.008 µg/mL (≈ 0.00446 µM); MIC [12]: 0.004 µg/mL (≈ 0.00223 µM); MIC90 [13]: 1 µg/mL (≈ 0.558 µM); MIC90 [14]: 4 µg/mL (≈ 2.23 µM); MIC [1]: 0.03 µg/mL; MIC [15]: 0.001 µg/mL (≈ 0.000558 µM); MIC [16]: 0.001 µg/mL; MIC [2]: 0.016 µg/mL (≈ 0.00892 µM); MIC90 [17]: 0.25 µg/mL; fold change (FC) [18]: 16; MIC90 [19]: 0.25 µg/mL; Ratio [20]: 1; MIC90 [21]: 1 µg/mL (≈ 0.558 µM); MIC90 [22]: 0.25 µg/mL; fold change (FC) [23]: 4; MIC90 [24]: 1 µg/mL; MIC [25]: 0.004 µg/mL; MIC90 [26]: 0.004 µg/mL; MIC90 [27]: 4 µg/mL (≈ 2.23 µM); MIC [28]: 0.001 µg/mL (≈ 0.000558 µM); MIC90 [29]: 0.25 µg/mL (≈ 0.139 µM); Ratio [30]: 16; MIC [3]: 0.5 µg/mL (≈ 0.279 µM); MIC [31]: 0.004 µg/mL (≈ 0.00223 µM); MIC90 [32]: 0.004 µg/mL (≈ 0.00223 µM); Ratio [33]: 16; MIC [4]: 0.001 µg/mL; MIC [34]: 0.004 µg/mL; MIC [5]: 0.03 µg/mL (≈ 0.0167 µM); MIC [6]: 1 µg/mL (≈ 0.558 µM); Ratio [35]: 16; MIC90 [36]: 0.25 µg/mL; MIC90 [37]: 2 µg/mL (≈ 1.12 µM); MIC90 [38]: 0.12 µg/mL; MIC [7]: 0.03 µg/mL; MIC [8]: 0.002 µg/mL; MIC [9]: 0.03 µg/mL; MIC90 [39]: 4 µg/mL (≈ 2.23 µM); Ratio [40]: 1; MIC90 [41]: 0.12 µg/mL; Ratio [42]: 32; MIC [10]: 0.03 µg/mL; Ratio [43]: 1
